Results published in patent US5317009A, “Anti-HIV proteins GAP 31, DAP 30 and DAP 32 and therapeutic uses thereof” (New York University, priority 1991, dated 1994).
Entries after “also recorded” stand apart in the source; their conditions may differ.

What was measured:
[1] = test system: cells
[2] = test system: HIV-1; assay: Syncytia formation in infectious cell center assay (HIV-1 infection); type: cell-based, HIV-1 (CEM-ss indicator cells)
Source text: FIG. 2 is a graph showing the effects of GAP 31, DAP 30 and DAP 32 on HIV-1 infection by inhibition of syncytia formation in an infectious cell center assay (ICC). Results represent average values of triplicates from two independent experiments. Triplicate wells of indicator cells containing the test compounds at each concentration without virus were also included for the determination of the cytotoxic and cytostatic activities of these anti-HIV proteins. Infectious cell centers (%ICC) are expressed in terms of Vn/Vo where Vn and Vo are average numbers of syncytia in the drug-treated and untreated samples respectively.
(§1) The anti-HIV activities of GAP 31, DAP 30, and DAP 32 were determined by microtiter syncytia formation in infectious cell center assay (Nara, P. L. et al., Nature 332:469-70 (1988)), viral core protein p24 expression (Nara, P. L. et al., AIDS Res. Human Retroviruses 3:283-302 (1987)), and viral-associated RT activity (Hoffman, A. D. et al., Virology 147:326-35 (1985)). […]
Freshly prepared indicator cells in culture medium at 5×10^4 in 100 μl were treated with 100 μl of SCRIP at various concentrations, for 90 min. […] Focal syncytium formation representing single infectious virion units was scored at day 5 by examination under an inverted microscope. […]

[3] = test system: HIV-1; assay: Viral-associated reverse transcriptase (HIV-RT) activity in H9 cell cultures; type: cell-based, HIV-1 (H9 cells)
Experimental: (§2) FIG. 3 is a graph showing the effects of GAP 31, DAP 30 and DAP 32 on HIV-1 replication, measured by viral core antigen p24 expression and HIV-RT activity. p24 production was determined by RIA and expressed in ng/ml. Viral-RT activity was determined by the incorporation of [^3 H]dTTP into TCA-precipitable products and expressed as cpm×10^3 /ml. These values in control culture (without added plant proteins) were 2219 ng/ml and 846×10^3 cpm/ml, respectively, as determined in triplicates in two independent experiments. Results are normalized to values obtained in control cultures.
as §1
(§3) Assays of viral core protein p24 expression and HIV-RT activity were carried out in H9 cell cultures. […] The amount of p24 was measured by RIA and expressed in terms of ng/ml. HIV-RT activity was determined by the incorporation of [^3 H] labeled thymidine with poly(rA).p(dT)12-18 as primer-template and expressed in terms of cpm/ml.

[4] = test system: HIV-1; assay: Viral core protein p24 expression in H9 cell cultures (HIV-1 replication); type: cell-based, HIV-1 (H9 cells)
Experimental: as §2, §1, §3

[5] = test system: cells; conditions: literature; cited from earlier work
[6] = test system: CF1 mice; conditions: i.p.
[7] = test system: HIV; conditions: literature; cited from earlier work
[8] = test system: H9 cells; assay: Cytotoxicity to uninfected H9 cells (cellular DNA and protein synthesis); type: cell-based
Experimental: FIG. 4 is a graph showing the cytotoxic activity of GAP 31, DAP 30 and DAP 32, measured as cellular incorporation of [^3 H] thymidine or leucine into TCA-insoluble material in pulse labeling experiments. H9 cells were seeded at 2×10^4 cells/well and cultures pulsed with 1 μCi (1 Ci=37 GBq) of label 8 hr prior to harvesting at day 4. DNA or protein synthesis were measured by scintillation counting of the incorporation of labelled precursors. Results are normalized to values obtained for controls cultures without added anti-HIV proteins. Control values for thymidine uptake was 201,000 cpm and for leucine was 61,000 cpm. Results are the average triplicate values in two independent experiments.
The cytotoxicities of the SCRIPs were measured by their effects on cellular DNA and protein syntheses in uninfected H9 cells. Target cells were grown in the absence and presence of various amounts of SCRIPs. The cultures were pulse labeled with 1 μCi of [^3 H] labeled thymidine or leucine for 8 hours prior to harvesting on day 4. Cellular incorporation of these labeled precursors into trichloroacetic acid (TCA) precipitable products was determined by scintillation counting. Cell viability was determined by trypan blue dye exclusion. Toxicity to intact animals was determined by intraperitoneal injection (i.p.) of the SCRIPs into mice. […]

[9] = test system: ribosome (rabbit reticulocyte lysate system); assay: Ribosome-inactivating activity: cell-free translation of globin mRNA in rabbit reticulocyte lysate; type: biochemical
Experimental: FIG. 5 is a graph showing the ribosome-inactivating activity of GAP 31, […] and DAP 32, measured as in vitro translation of globin mRNA in a rabbit reticulocyte system. Inhibition of protein synthesis was determined by measuring incorporation of [^3 H]leucine into TCA-insoluble material as a function of drug concentration. Results are from two independent experiments each run in duplicate. Average control values for leucine incorporation without added anti-HIV protein is 65,000 cpm/μl. Results are shown as % of control plotted against concentration of the added anti-HIV protein.
Ribosome-inactivating activity was measured by cell-free protein biosynthesis in a rabbit reticulocyte lysate system. The reaction was carried out in a total volume of 25 μl containing 2 mM magnesium acetate, 80 mM potassium acetate, 2.5 mM spermidine, 34.5 mg/ml creatine phosphate, 26 mg/ml GTP, 250 mM HEPES buffer, 1 μCi of [3H] leucine and 1 μg of globin mRNA. Incubation was conducted at 37° C. for 30 min. The translation products were resolved by TLC in a solvent system of methanol/water/TCA/glacial acetic acid (30/50/10/10, V/V/W/V). The incorporation of [^3 H] labeled leucine into TCA precipitable product was measured by scintillation counting.

Substance | toxicity (cytotoxicity) in words [1] | Inhibition of syncytium formation, ID50 [2] [nM] | Inhibition of Reverse Transcriptase (HIV-RT activity), ID50 [3] [nM] | Inhibition of p24 activity (expression), ID50 [4] [nM] | cytotoxicity [5] | In Vivo Toxicity, LD50 (range) [6] [mg/kg] | hepatic hyperplasia ([6]; 0.1-100 mg per 100 gm body weight every three days) | anti-HIV activity [7] | Cytotoxicity, ID50 [8] [nM] | Ribosome-inactivation, ID50 [9] [nM]
SAP-6: a SCRIP isolated from Saponaria officinalis | relatively toxic |  |  |  |  |  |  |  |  | 
trichosanthin | toxic | 0.34 | 0.46 | 0.37 | toxic; also recorded: cytotoxic side effects | 5 to 7 | moderate hepatic hyperplasia | reduced viral antigen expression in, and were selectively toxic to, HIV-infected cells | 340 | 3.7
